Assay results as given in patent US20140057901A1, “XANTHINE DERIVATIVES, THE PREPARATION THEREOF AND THEIR USE AS PHARMACEUTICAL COMPOSITIONS” (Boehringer Ingelheim Pharma GmbH & Co. KG, priority 2001, published 2014).

melting point: 110 to 112 °C
Compound: CC(C)=CCn1c(N2CCC(CN)CC2)nc2c1c(=O)n(C)c(=O)n2C [Example 2(105), 1,3-dimethyl-7-(3-methyl-2-buten-1-yl)-8-(4-aminomethyl-piperidin-1-yl)-xanthine]
